# Reference: US9822147B2, “Methods of treating ophthalmic diseases using NPR-B agonists” (priority 2009, dated 2017)
# pEC50: −log10 of the molar value. Numbered stars: 1 amine (or outer) side, 2 acyl side, 3 side chain; on linkers, the order of the positions; unused ones are H or OH. Square brackets hold non-standard residues; d marks the D form. Peptide text beside a SMILES is read from it. * marks the point of attachment. X3 = NCCN[C@@H]1C[C@@H](C(=O)[*:2])N([*:1])C1; Pro(4R-NH2) = N[C@H]1CN[C@H](C(=O)O)C1; X9 = CN(C)CC[C@@H](N[*:1])C(=O)[*:2]; dLys(Me2) = CN(C)CCCC[C@@H](N)C(=O)O; dOrn(Me2) = CN(C)CCC[C@@H](N)C(=O)O; X11 = O=C(C(CCN1CCCC1)N[*:1])[*:2]; X2 = O=C([C@H]1CCCN([*:1])C1)[*:2]; X1 = CCCCCCCCN1CCC[C@H](C(=O)*)C1; Hyp = O=C(O)[C@@H]1C[C@@H](O)CN1; Aoc(2) = CCCCCC[C@H](N)C(=O)O; NHcycloheptyl = C1CCCC(N*)CC1; NMeL = CN[C@@H](CC(C)C)C(=O)O; Octanoyl = CCCCCCCC(=O)*; AEEA = NCCOCCOCC(=O)O
# Biological target: T1, NPR-B (Homo sapiens, UniProt P20594)
# T1 construct: a functional assay using endogenously NPR-B expressing GTM-3 cells; endogenous in cells; host or cells: GTM-3 (human glaucoma trabecular meshwork cells)
# T1 sequence (P20594 23-1047): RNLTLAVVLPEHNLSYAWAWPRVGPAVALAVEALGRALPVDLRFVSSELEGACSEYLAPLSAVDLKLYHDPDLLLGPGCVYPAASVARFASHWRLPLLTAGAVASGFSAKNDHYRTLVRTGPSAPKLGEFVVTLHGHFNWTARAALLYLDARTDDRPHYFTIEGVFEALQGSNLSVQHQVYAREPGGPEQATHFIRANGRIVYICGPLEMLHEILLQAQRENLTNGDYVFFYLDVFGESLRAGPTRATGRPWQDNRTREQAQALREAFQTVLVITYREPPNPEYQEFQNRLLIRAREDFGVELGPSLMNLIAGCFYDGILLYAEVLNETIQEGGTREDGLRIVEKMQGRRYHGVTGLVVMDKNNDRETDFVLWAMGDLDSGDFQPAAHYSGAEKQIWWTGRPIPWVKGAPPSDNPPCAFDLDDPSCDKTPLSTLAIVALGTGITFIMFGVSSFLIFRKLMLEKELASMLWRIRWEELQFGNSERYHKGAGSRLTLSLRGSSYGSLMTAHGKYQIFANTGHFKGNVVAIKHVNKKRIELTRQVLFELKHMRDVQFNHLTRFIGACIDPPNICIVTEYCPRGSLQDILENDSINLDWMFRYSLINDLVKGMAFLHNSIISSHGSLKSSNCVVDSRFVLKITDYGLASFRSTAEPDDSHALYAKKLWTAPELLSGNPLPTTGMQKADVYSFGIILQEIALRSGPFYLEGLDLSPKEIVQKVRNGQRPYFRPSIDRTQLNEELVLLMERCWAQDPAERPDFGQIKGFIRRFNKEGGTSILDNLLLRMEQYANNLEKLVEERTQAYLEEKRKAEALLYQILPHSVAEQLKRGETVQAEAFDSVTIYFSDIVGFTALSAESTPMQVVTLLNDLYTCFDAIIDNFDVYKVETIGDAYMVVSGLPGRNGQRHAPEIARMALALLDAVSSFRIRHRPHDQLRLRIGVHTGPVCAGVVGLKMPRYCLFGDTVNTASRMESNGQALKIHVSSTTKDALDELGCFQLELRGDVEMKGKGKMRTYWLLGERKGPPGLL
# Assay: NPR-B induced production of cyclic GMP in human glaucoma trabecular meshwork cells (GTM-3)
# Format: cell-based
# Details: group by EC50 and Emax (CNP = 100%); Table 4; read-out: Activity (group), NPR-B activation assayed with GTM-3 cells
row,Structure (SMILES),pEC50
1,"CCCCCCCC(=O)N1CCCC2(CCN(C(Cc3ccccc3)C(=O)N[C@H](CC(C)C)C(=O)N[C@@H](CC(C)C)C(=O)N3C[C@H](O)C[C@H]3C(=O)N(C)[C@@H](CC(C)C)C(=O)N[C@@H](CC(=O)O)C(=O)N[C@@H](CCCNC(=N)N)C(=O)N[C@H](C(N)=O)[C@@H](C)CC)C2=O)C1 (stereo partly drawn) [JAL-1765-2, (AR-314-87)-leu-Leu-Hyp-Nml-Asp-Arg-Ile-NH2] (HELM PEPTIDE1{[CCCCCCCC(=O)[*:2]].[O=C1N(C(Cc2ccccc2)C(=O)[*:2])CCC12CCCN([*:1])C2].[dL].L.[Hyp].[meL].D.R.I.[am]}$$$$V2.0)",> 6.00
2,"CCCCCCCC(=O)N[C@@]1(C)CCN([C@@H](Cc2ccccc2)C(=O)N[C@H](CC(C)C)C(=O)N[C@@H](CC(C)C)C(=O)N2C[C@H](O)C[C@H]2C(=O)N(C)[C@@H](CC(C)C)C(=O)N[C@@H](CC(=O)O)C(=O)N[C@@H](CCCNC(=N)N)C(=O)N[C@H](C(N)=O)[C@@H](C)CC)C1=O [JAL-1774, (AR-314-102)-leu-Leu-Hyp-Nml-Asp-Arg-Ile-NH2]",> 6.00
3,"CCCCCCCC(=O)N1CCC[C@H](C(=O)N[C@@H](Cc2ccccc2)C(=O)N[C@H](CCCCN(C)C)C(=O)N[C@@H](CC(C)C)C(=O)N2C[C@H](O)C[C@H]2C(=O)N(C)[C@@H](CC(C)C)C(=O)N[C@H](C(=O)N[C@@H](CCCNC(=N)N)C(=O)NC2CCCCCC2)C(C)C)C1 [JAL-1779, Occ-Sni-Phe-lys(Me2)-Leu-Hyp-Nml-Val-Arg-Che] (Octanoyl-[X2]F[dLys(Me2)]L[Hyp][NMeL]VR-NHcycloheptyl)",> 6.00
4,"CCCCCCCC(=O)N1CCC[C@H](C(=O)N[C@@H](Cc2ccccc2)C(=O)N[C@H](CCCN(C)C)C(=O)N[C@@H](CC(C)C)C(=O)N2C[C@H](O)C[C@H]2C(=O)N(C)[C@@H](CC(C)C)C(=O)N[C@H](C(=O)N[C@@H](CCCNC(=N)N)C(=O)N[C@H](C(N)=O)[C@@H](C)CC)C(C)C)C1 [JAL-1782, Occ-Sni-Phe-orn(Me2)-Leu-Hyp-Nml-Val-Arg-Ile-NH2] (Octanoyl-[X2]F[dOrn(Me2)]L[Hyp][NMeL]VRI-NH2)",> 6.00
5,"CCCCCCCC(=O)N1CCC[C@H](C(=O)N[C@@H](Cc2ccccc2)C(=O)N[C@H](CCN(C)C)C(=O)N[C@@H](CC(C)C)C(=O)N2C[C@H](O)C[C@H]2C(=O)N(C)[C@@H](CC(C)C)C(=O)N[C@@H](CC(=O)O)C(=O)N[C@@H](CCCNC(=N)N)C(=O)N[C@H](C(N)=O)[C@@H](C)CC)C1 [JAL-1785, Occ-Sni-Phe-dab(Me2)-Leu-Hyp-Nml-Asp-Arg-Ile-NH2] (Octanoyl-[X2]F[X9]L[Hyp][NMeL]DRI-NH2)",> 6.00
6,"CCCCCC[C@H](NC(=O)COCCOCCN)C(=O)N1CCC[C@H](C(=O)N[C@@H](Cc2ccccc2)C(=O)N[C@H](CC(C)C)C(=O)N[C@@H](CC(C)C)C(=O)N2C[C@H](O)C[C@H]2C(=O)N(C)[C@@H](CC(C)C)C(=O)N[C@@H](CC(=O)O)C(=O)N[C@@H](CCCNC(=N)N)C(=O)N[C@H](C(N)=O)[C@@H](C)CC)C1 [JAL-1808, H-Adx-Hgl-Sni-Phe-leu-Leu-Hyp-Nml-Asp-Arg-Ile-NH2] (H-[AEEA][Aoc(2)][X2]F[dL]L[Hyp][NMeL]DRI-NH2)",> 6.00
7,"CCCCCCCC(=O)N1CCC[C@H](C(=O)N[C@@H](Cc2ccccc2)C(=O)N[C@H](CCCN(C)C)C(=O)N[C@@H](CC(C)C)C(=O)N2C[C@H](N)C[C@H]2C(=O)N(C)[C@@H](CC(C)C)C(=O)N[C@H](C(=O)N[C@@H](CCCNC(=N)N)C(=O)NC2CCCCCC2)C(C)C)C1 [JAL-1850, Occ-Sni-Phe-orn(Me2)-Leu-Tap-Nml-Val-Arg-Che] (Octanoyl-[X2]F[dOrn(Me2)]L[Pro(4R-NH2)][NMeL]VR-NHcycloheptyl)",> 6.00
8,"CCCCCCCC(=O)N1CCC[C@H](C(=O)N[C@@H](Cc2ccccc2)C(=O)NC(CCN2CCCC2)C(=O)N[C@@H](CC(C)C)C(=O)N2C[C@H](O)C[C@H]2C(=O)N(C)[C@@H](CC(C)C)C(=O)N[C@@H](CC(=O)O)C(=O)N[C@@H](CCCNC(=N)N)C(=O)N[C@H](C(N)=O)[C@@H](C)CC)C1 (stereo partly drawn) [JAL-1877, Occ-Sni-Phe-(AR-385-12)-Leu-Hyp-Nml-Asp-Arg-Ile-NH2] (Octanoyl-[X2]F[X11]L[Hyp][NMeL]DRI-NH2)",> 6.00

# Next, values leading:
row,pEC50,Structure (SMILES)
1,> 6.00,"CCCCCCCC(=O)N1CCC[C@H](C(=O)N[C@@H](Cc2ccccc2)C(=O)N[C@H](CC(C)C)C(=O)N[C@@H](CC(C)C)C(=O)N2C[C@H](O)C[C@H]2C(=O)N(C)[C@@H](CC(C)C)C(=O)N[C@@H](CC(=O)O)C(=O)N[C@@H](CCCNC(=N)N)C(=O)NC2CCCCCC2)C1 [JAL-1680, Occ-Sni-Phe-leu-Leu-Hyp-Nml-Asp-Arg-Che] (Octanoyl-[X2]F[dL]L[Hyp][NMeL]DR-NHcycloheptyl)"
2,> 6.00,"CCCCCCCC(=O)N1CCC[C@H](C(=O)N[C@@H](Cc2ccccc2)C(=O)N[C@H](CC(C)C)C(=O)N[C@@H](CC(C)C)C(=O)N2C[C@H](NCCN)C[C@H]2C(=O)N(C)[C@@H](CC(C)C)C(=O)N[C@@H](CC(=O)O)C(=O)N[C@@H](CCCNC(=N)N)C(=O)NC2CCCCCC2)C1 [JAL-1681, Occ-Sni-Phe-leu-Leu-Tap(Ae)-Nml-Asp-Arg-Che] (Octanoyl-[X2]F[dL]L[X3][NMeL]DR-NHcycloheptyl)"
3,> 6.00,"CCCCCCCC(=O)N1CCC[C@H](C(=O)N[C@@H](Cc2ccccc2)C(=O)N[C@H](CC(C)C)C(=O)N[C@@H](CC(C)C)C(=O)N2C[C@H](N)C[C@H]2C(=O)N(C)[C@@H](CC(C)C)C(=O)N[C@@H](CC(=O)O)C(=O)N[C@@H](CCCNC(=N)N)C(=O)NC2CCCCCC2)C1 [JAL-1682, Occ-Sni-Phe-leu-Leu-Tap-Nml-Asp-Arg-Che] (Octanoyl-[X2]F[dL]L[Pro(4R-NH2)][NMeL]DR-NHcycloheptyl)"
4,> 6.00,"CCCCCCCC(=O)N1CCC[C@H](C(=O)N[C@@H](Cc2ccccc2)C(=O)N[C@H](CC(C)C)C(=O)N[C@@H](CC(C)C)C(=O)N2C[C@H](O)C[C@H]2C(=O)N(C)[C@@H](CC(C)C)C(=O)N[C@@H](CO)C(=O)N[C@@H](CCCNC(=N)N)C(=O)NC2CCCCCC2)C1 [JAL-1752, Occ-Sni-Phe-leu-Leu-Hyp-Nml-Ser-Arg-Che] (Octanoyl-[X2]F[dL]L[Hyp][NMeL]SR-NHcycloheptyl)"
5,> 6.00,"CCCCCCCC(=O)N1CCC[C@H](C(=O)N[C@@H](Cc2ccccc2)C(=O)N[C@H](CC(C)C)C(=O)N[C@@H](CC(C)C)C(=O)N2C[C@H](O)C[C@H]2C(=O)N(C)[C@@H](CC(C)C)C(=O)N[C@H](C(=O)N[C@@H](CCCNC(=N)N)C(=O)NC2CCCCCC2)[C@@H](C)O)C1 [JAL-1753, Occ-Sni-Phe-leu-Leu-Hyp-Nml-Thr-Arg-Che] (Octanoyl-[X2]F[dL]L[Hyp][NMeL]TR-NHcycloheptyl)"
6,> 6.00,"CCCCCCCC(=O)N1CCC[C@H](C(=O)N[C@@H](Cc2ccccc2)C(=O)N[C@H](CCCN(C)C)C(=O)N[C@@H](CC(C)C)C(=O)N2C[C@H](O)C[C@H]2C(=O)N(C)[C@@H](CC(C)C)C(=O)N[C@@H](CC(=O)O)C(=O)N[C@@H](CCCNC(=N)N)C(=O)NC2CCCCCC2)C1 [JAL-1776, Occ-Sni-Phe-orn(Me2)-Leu-Hyp-Nml-Asp-Arg-Che] (Octanoyl-[X2]F[dOrn(Me2)]L[Hyp][NMeL]DR-NHcycloheptyl)"
7,> 6.00,"CCCCCCCC(=O)N1CCC[C@H](C(=O)N[C@@H](Cc2ccccc2)C(=O)N[C@H](CCCCN(C)C)C(=O)N[C@@H](CC(C)C)C(=O)N2C[C@H](O)C[C@H]2C(=O)N(C)[C@@H](CC(C)C)C(=O)N[C@@H](CC(=O)O)C(=O)N[C@@H](CCCNC(=N)N)C(=O)NC2CCCCCC2)C1 [JAL-1777, Occ-Sni-Phe-lys(Me2)-Leu-Hyp-Nml-Asp-Arg-Che] (Octanoyl-[X2]F[dLys(Me2)]L[Hyp][NMeL]DR-NHcycloheptyl)"
8,> 6.00,"CCCCCCCC(=O)N1CCC[C@H](C(=O)N[C@@H](Cc2ccccc2)C(=O)N[C@H](CCN(C)C)C(=O)N[C@@H](CC(C)C)C(=O)N2C[C@H](O)C[C@H]2C(=O)N(C)[C@@H](CC(C)C)C(=O)N[C@H](C(=O)N[C@@H](CCCNC(=N)N)C(=O)NC2CCCCCC2)C(C)C)C1 [JAL-1784, Occ-Sni-Phe-dab(Me2)-Leu-Hyp-Nml-Val-Arg-Che] (Octanoyl-[X2]F[X9]L[Hyp][NMeL]VR-NHcycloheptyl)"
9,> 6.00,"CCCCCCCCN1CCC[C@H](C(=O)N[C@@H](Cc2ccccc2)C(=O)N[C@H](CC(C)C)C(=O)N[C@@H](CC(C)C)C(=O)N2C[C@H](N)C[C@H]2C(=O)N(C)[C@@H](CC(C)C)C(=O)N[C@@H](CC(=O)O)C(=O)N[C@@H](CCCNC(=N)N)C(=O)NC2CCCCCC2)C1 [JAL-1843, Oct-Sni-Phe-leu-Leu-Tap-Nml-Asp-Arg-Che] (X1-F[dL]L[Pro(4R-NH2)][NMeL]DR-NHcycloheptyl)"
